Literature values in patent publication US20220226447A1, “ANTI-ABETA VACCINE THERAPY” (AC Immune SA, priority 2019, published 2022).

Conditions: human, in vivo

## AN1792: full-length Aβ1-42 vaccine
  antibody response: induced an antibody response
  rate of cognitive decline versus placebo-treated patients: slower rate of cognitive decline
  treated patients who developed meningoencephalitis: 6%
